We go through 8 molecules from patent US6203822A, “Gallium-containing compounds for the treatment of infections caused by intracellular pathogens and pathogens causing chronic pulmonary infection” (priority 1996, dated 2001).

In data set [1] the test system is M. tuberculosis in human alveolar macrophages. Description: M. tuberculosis in human alveolar macrophages, gallium nitrate with or without anti-tuberculous antibiotics. It counts as cell-based. The note with it: full doses of first line antibiotics, by 24 h. As for the experimental part:
The gallium-containing compounds can also be tested for their ability to inhibit intracellular pathogens in tissue culture assays. In general, in these assays, the macrophages are placed in culture and incubated with the intracellular pathogen at an approximate cell to pathogen ratio of preferably at least 1:1 to about 1:5 cells:pathogen. Exemplary culture conditions are provided in the assays detailed in the Examples. For assays assessing M. tuberculosis infection, freshly adherent monocytes, 12 day-old adherent MDMs, or freshly adherent alveolar macrophages are incubated with M. tuberculosis, MAI or other intracellular bacteria at a ratio of about 1:1 to about 1:5 (phagocyte:bacterium). For M. tuberculosis or MAI, the bacteria are incubated with the phagocyte for 2 hr at 37° C. in RPMI/HEPES media with 2.5% serum or human serum albumin (serum-free). The cells are washed to remove non-adherent bacteria and monolayers are replated with RPMI containing 1% autologous serum (to maintain phagocyte viability but not to sustain extracellular growth of bacteria). Gallium-containing compounds, such as gallium nitrate, with, or without, other agents such as antibiotics, cytokines etc., are added about 24 hr. later and mycobacterial growth in cell lysates is then assessed over the next several days either by the radiometric BACTEC system or by colony-forming units on agarose plates. In each experiment, growth is assessed relative to control monolayers where no drug has been added.
Human alveolar macrophages were purified from healthy non-smoking adult volunteers and placed in monolayer culture. M. tuberculosis infected cells were treated with gallium nitrate as described in Example 2. Antituberculous antibiotics were added to wells alone or with gallium nitrate at 500 μM 24 h after M. tuberculosis infection. Antituberculous antibiotics tested included streptomycin (2.016 μg/ml), isoniazid (0.1 μg/ml), rifampin (2.0 μg/ml), and ethambutol (2.52 μg/ml) and the combination of antibiotics was denoted as SIRE. Antibiotics were obtained in lyophilized form from BACTEC. The antibiotics were reconstituted in sterile water per package instructions. With reference to FIG. 3, SIRE refers to combinations of streptomycin, isoniazid, rifampin and ethambutol while IR refers to combinations of Isoniazid and rifampin.
Infected macrophages were cultured for 24 h, 48 h, or 120 h. Growth index readings of combined supernatants and cell lysates were measured in the BACTEC 460 TB system. […] Since these antibiotics have a number of unpleasant side effects that are reduced at reduced concentrations of the drugs, combined therapies that permit these antibiotics to be administered at lower doses when combined with gallium nitrate is significant and may help to promote better drug compliance in patients infected with M. tuberculosis.

Data set [2] relates to M. tuberculosis strain H37Ra. It counts as cell-based.
Data set [3] relates to M. tuberculosis in macrophages. Type of data set: cell-based.
The test system of data set [4] is macrophage ferritin and transferrin receptors. Particulars: Byrd, et al.; cited from earlier work.
The subject of data set [5] is macrophage monolayers (MDMs). Description: Gallium toxicity in uninfected MDM monolayers. Type of data set: cell-based, human. The note with it: in most cases, equivalent to untreated controls. On the procedure: To test the potential toxicity of gallium nitrate on the standard macrophage monolayers (MDMs) used in the assays described in this invention, uninfected MDM monolayers were incubated with various concentrations of gallium nitrate in the range used in the studies described in Examples 2 and 3.
There was no immediate difference in monolayer density between MDM monolayers with and without gallium nitrate treatment up to a gallium concentration of 2 mM. Results were based on counting napthol blue macrophage stained nuclei from the monolayer. These numbers directly correlate with the number of cells present. In most cases the integrity of the MDM monolayer in the presence of gallium was maintained for up to 37 days, equivalent to untreated, uninfected control cultures.

Data set [6] has as its system bone cell. Particulars: cancer patients, large scale clinical studies (Todd et al.); cited from earlier work.
For data set [7] the following is noted: known from literature; cited from earlier work.

Read-outs that look alike come from different tables or passages of the source. A value given as a limit tells only on which side of the number the result lay.

`NNC(=O)c1ccncc1` [isoniazid]: in data set [1], the “growth inhibition by full doses of first line antibiotics” value (“growth inhibition by full doses” for short) is on record as “quite potent”. Consider “transferrin: control cultures were treated with transferrin alone; Human apotransferrin (Sigma Chemicals)”, for which the “bacterial growth inhibition, control culture” value in data set [2] (transferrin alone) is “no inhibition in bacterial growth”.

In the case of “interferon-γ: Human interferon-γ (Genzyme, Cambridge, Mass.), cytokine”, the “augmentation of gallium nitrate growth inhibition” value is “at least 50%” in data set [3] (IFN-γ in combination with 0 to about 400 μM gallium nitrate) and at least 50% in data set [3] (interferon-γ various concentrations (0-1000U), gallium nitrate at 100 μM). For the same molecule, in data set [4], the “effect on expression of transferrin receptors” value is “down regulate expression of transferrin receptors”. For the same molecule, in data set [4], the “effect on macrophage ferritin levels” value is reported as “down regulate macrophage ferritin levels”. Turning to `[H]/N=C(/N)N[C@H]1[C@H](O)[C@@H](O)[C@H](O[C@@H]2O[C@@H](C)[C@](O)(C=O)[C@H]2O[C@@H]2O[C@@H](CO)[C@H](O)[C@@H](O)[C@@H]2NC)[C@@H](N/C(N)=N\[H])[C@@H]1O` [streptomycin], in data set [1], the “growth inhibition by full doses” value was “quite potent”. Consider “gallium transferrin: Human apotransferrin mixed 1:1 (by molar ratio) with gallium”, for which the “concentration of gallium with marked inhibition of growth” value in data set [2] (growth index Day 10, broth culture, apotransferrin mixed 1:1 with gallium) was 75 µM. As to `CO[C@H]1/C=C/O[C@@]2(C)Oc3c(C)c(O)c4c(O)c(c(/C=N/N5CCN(C)CC5)c(O)c4c3C2=O)NC(=O)/C(C)=C\C=C\[C@H](C)[C@H](O)[C@@H](C)[C@@H](O)[C@@H](C)[C@H](OC(C)=O)[C@@H]1C` [rifampin], the “growth inhibition by full doses” value in data set [1] is listed as “quite potent”. As to `CC[C@@H](CO)NCCN[C@@H](CC)CO` [ethambutol], the “growth inhibition by full doses” value in data set [1] is listed as “quite potent”. Turning to `[Ga]` [gallium], in data set [5], the “time integrity of MDM monolayer maintained in presence of gallium” value is given as “up to 37 days”. Also, in data set [6], the “effect on bone cell morphology or viability” value is “did not affect bone cell morphology or viability”. In data set [7], the tissue accumulation result is “accumulate in cells of mononuclear origin in the liver, kidney, spleen and lymphatic system”.
